Test [1] deals with T1, human Nav1.7 channels stably expressed in HEK 293 cells (Homo sapiens, UniProt Q15858).
T1 construct: expressed in transfected cells; host or cells: HEK 293
Kind of test: IonWorks Quattro automated patch-clamp, inactivated state block of Nav1.7. It counts as cell-based. Conditions: double-pulse protocol, read-out: potency for the Nav 1.7 sodium ion channel (as measured by IonWorks). As to the method: (§1) Compounds were tested on human Nav1.7 and Nav1.5 channels stably expressed in HEK 293 cells. […] Cells were sealed on a planar substrate using the Population Patch Plate (PPC) technology. Electrical access was obtained using both nystatin and amphotericin. A double-pulse protocol was used for the determination of IC50 values for inactivated state block. Nav1.7 and Nav1.5 expressing cells were voltage clamped at −100 mV and −110 mV, respectively. A depolarizing prepulse to −10 mV (Nav1.7) or −30 mV (Nav1.5) for 1000 ms followed by a 10 ms repolarization to −100 mV (Nav1.7) or −110 mV (Nav1.5) was given to generate fractional channel inactivation of ˜50%, followed by a 10 ms test pulse to −10 mV (Nav1.7) or −30 mV (Nav1.5) to measure peak current in control conditions and after compound addition. The following recording solutions were used (mM). External: 150 NaCl, 2 CaCl2, 5 KCl, 1 Mg Cl2, 10 HEPES, 12 Dextrose; internal: 120 CsF, 30 CsCl, 10 EGTA, 5 HEPES, 5 NaF, 2 MgCl2.
(§2) For all electrophysiology experiments, offline analysis was used to determine percent inhibition as a function of drug concentration. IC50 values were determined by fitting to the Hill equation.

Test [2] has as its target T2, human Nav1.5 channels stably expressed in HEK 293 cells (Homo sapiens, UniProt Q14524).
T2 construct: expressed in transfected cells; host or cells: HEK 293
The test is described as follows: IonWorks Quattro automated patch-clamp, inactivated state block of Nav1.5 (selectivity). Conditions: IonWorks measurement, both channels in HEK 293 cells. It counts as cell-based. As to the method: as §1, §2
(Patch clamp records ionic current or voltage across a cell membrane.)

SMILES strings stand for the structures.

T2 sequence (Q14524 whole entry): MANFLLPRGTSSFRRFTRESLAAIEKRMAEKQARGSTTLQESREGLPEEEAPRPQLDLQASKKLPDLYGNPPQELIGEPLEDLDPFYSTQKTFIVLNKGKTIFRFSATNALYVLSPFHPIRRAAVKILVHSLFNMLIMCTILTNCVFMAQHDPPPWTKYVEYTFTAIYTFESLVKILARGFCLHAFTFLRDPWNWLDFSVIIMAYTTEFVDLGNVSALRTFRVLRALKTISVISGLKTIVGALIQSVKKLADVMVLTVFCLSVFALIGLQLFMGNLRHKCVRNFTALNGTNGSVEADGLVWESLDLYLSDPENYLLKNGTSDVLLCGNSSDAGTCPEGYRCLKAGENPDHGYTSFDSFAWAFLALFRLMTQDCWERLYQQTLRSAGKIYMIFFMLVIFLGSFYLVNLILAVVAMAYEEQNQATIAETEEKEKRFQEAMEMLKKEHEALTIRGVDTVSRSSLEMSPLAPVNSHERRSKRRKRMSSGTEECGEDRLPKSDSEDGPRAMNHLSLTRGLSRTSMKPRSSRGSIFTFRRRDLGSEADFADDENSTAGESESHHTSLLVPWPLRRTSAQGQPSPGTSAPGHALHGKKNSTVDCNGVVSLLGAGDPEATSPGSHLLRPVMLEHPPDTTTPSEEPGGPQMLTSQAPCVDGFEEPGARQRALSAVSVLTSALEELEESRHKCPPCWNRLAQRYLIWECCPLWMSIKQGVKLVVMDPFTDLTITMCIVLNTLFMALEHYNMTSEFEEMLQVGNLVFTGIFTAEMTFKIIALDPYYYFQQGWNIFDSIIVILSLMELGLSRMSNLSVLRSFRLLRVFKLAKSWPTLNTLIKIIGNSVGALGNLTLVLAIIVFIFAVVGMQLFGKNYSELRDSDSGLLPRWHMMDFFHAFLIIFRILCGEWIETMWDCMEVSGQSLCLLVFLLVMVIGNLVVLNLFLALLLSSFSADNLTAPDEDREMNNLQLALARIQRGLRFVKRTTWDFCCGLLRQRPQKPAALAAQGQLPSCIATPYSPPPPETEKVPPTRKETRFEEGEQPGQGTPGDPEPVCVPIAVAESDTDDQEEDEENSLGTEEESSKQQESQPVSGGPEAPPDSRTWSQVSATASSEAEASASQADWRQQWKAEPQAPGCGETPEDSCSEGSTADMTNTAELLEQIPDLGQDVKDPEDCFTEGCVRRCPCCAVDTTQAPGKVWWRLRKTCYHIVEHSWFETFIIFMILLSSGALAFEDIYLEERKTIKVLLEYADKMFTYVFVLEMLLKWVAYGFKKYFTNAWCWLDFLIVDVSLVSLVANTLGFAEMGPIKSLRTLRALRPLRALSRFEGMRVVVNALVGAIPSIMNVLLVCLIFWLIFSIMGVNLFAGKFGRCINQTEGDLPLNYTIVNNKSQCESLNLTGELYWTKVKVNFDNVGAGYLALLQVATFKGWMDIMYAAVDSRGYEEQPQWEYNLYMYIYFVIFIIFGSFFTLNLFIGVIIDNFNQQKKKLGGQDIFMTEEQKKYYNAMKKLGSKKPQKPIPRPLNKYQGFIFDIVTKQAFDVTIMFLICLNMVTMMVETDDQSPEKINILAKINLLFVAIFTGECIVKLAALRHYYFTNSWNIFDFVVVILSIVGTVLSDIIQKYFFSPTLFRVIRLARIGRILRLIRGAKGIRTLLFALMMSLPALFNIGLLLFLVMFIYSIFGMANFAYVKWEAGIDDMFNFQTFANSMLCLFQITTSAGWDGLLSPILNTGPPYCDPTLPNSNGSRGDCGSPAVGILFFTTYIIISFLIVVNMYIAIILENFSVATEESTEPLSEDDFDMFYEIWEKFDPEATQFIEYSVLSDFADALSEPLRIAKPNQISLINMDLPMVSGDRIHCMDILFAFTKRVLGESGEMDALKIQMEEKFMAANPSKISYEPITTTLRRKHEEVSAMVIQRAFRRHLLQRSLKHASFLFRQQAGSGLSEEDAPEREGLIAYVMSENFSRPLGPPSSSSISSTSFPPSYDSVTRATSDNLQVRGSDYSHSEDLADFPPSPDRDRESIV
T1 sequence (Q15858 whole entry): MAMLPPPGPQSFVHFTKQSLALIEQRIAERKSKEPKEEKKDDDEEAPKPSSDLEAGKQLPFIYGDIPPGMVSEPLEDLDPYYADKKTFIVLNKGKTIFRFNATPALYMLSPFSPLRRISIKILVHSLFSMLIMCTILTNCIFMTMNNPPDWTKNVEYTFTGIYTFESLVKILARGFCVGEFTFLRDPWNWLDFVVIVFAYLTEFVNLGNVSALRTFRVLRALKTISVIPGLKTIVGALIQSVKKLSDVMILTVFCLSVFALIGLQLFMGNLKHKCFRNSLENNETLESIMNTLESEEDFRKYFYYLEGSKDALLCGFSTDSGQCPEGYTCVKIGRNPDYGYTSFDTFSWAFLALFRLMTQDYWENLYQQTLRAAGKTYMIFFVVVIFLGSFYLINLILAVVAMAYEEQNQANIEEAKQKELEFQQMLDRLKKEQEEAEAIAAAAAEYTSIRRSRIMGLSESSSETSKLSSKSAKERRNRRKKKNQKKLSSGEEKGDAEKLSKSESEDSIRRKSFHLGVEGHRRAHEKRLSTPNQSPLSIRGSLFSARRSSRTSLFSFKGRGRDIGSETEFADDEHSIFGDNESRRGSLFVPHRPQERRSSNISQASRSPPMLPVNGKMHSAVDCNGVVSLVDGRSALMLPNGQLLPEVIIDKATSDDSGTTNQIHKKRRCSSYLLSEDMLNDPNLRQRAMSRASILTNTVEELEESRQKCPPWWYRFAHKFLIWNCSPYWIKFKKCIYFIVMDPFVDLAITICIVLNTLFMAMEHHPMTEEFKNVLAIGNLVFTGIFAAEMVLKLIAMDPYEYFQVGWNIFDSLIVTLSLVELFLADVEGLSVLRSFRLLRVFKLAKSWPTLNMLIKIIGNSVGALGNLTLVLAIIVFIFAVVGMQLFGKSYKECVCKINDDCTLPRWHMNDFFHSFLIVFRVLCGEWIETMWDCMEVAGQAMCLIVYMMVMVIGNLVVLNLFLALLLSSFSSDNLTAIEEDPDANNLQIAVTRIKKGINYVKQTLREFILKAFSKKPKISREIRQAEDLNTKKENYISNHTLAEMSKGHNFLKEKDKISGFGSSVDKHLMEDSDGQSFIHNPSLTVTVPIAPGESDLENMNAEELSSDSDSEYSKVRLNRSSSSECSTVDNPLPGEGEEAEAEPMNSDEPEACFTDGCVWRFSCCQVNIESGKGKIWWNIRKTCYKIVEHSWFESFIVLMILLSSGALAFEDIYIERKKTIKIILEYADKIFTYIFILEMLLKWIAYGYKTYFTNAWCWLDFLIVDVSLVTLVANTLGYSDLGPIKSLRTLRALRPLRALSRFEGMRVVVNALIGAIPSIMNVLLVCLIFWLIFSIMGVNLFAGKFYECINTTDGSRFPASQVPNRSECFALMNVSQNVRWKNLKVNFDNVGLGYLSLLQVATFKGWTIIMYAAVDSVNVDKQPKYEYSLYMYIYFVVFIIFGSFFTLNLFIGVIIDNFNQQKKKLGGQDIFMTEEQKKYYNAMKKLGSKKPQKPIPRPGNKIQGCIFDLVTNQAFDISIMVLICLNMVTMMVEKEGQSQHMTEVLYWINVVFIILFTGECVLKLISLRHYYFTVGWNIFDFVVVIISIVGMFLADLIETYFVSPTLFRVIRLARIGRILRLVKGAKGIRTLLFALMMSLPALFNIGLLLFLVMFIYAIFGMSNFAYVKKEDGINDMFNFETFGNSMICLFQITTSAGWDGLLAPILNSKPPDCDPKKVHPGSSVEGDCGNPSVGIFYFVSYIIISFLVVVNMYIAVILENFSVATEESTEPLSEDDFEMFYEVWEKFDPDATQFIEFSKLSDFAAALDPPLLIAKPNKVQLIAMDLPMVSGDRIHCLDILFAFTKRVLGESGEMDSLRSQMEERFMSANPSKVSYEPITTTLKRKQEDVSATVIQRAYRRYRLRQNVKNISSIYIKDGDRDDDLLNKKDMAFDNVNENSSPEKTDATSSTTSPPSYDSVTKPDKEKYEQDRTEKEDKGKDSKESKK

Consider `CN[C@H](CNc1cc(F)c(S(=O)(=O)Nc2nccs2)cc1Cl)Cc1ccc(F)cc1` (single isomer, unassigned) [Ex1-12], for which the IC50 in test [1] was 61 nM. Further, the “ratio of Nav1.7 potency:Nav 1.5 potency” value in test [2] was greater than 541. With `CN[C@H](CNc1cc(F)c(S(=O)(=O)Nc2ncc(F)s2)cc1Cl)CC1CCCC1` (single isomer, unassigned) [Ex3-11], the IC50 in test [1] turned out to be 110 nM.

On to `CN[C@H](CNc1cc(F)c(S(=O)(=O)Nc2ncc(F)s2)cc1Cl)CC1(CF)CC1` (single isomer, unassigned) [Ex5-4], for which, in test [1], the IC50 is 2000 nM. Also, the “ratio of Nav1.7 potency:Nav 1.5 potency” value in test [2] is given as greater than 14. Take `CN[C@H](CNc1cc(F)c(S(=O)(=O)Nc2nccs2)cc1Cl)Cc1ccccc1` [Ex1-7, (S)-5-chloro-2-fluoro-4-((2-(methylamino)-3-phenylpropyl)amino)-N-(thiazol-2-yl)benzenesulfonamide]: in test [1], the IC50 was determined as 200 nM. Turning to `CN[C@H](CNc1cc(F)c(S(=O)(=O)Nc2nccs2)cc1Cl)CC1CCCCC1` [Ex1-18, (S)-5-chloro-4-((3-cyclohexyl-2-(methylamino)propyl)amino)-2-fluoro-N-(thiazol-2-yl)benzenesulfonamide], the IC50 in test [1] came to 15 nM. Also, in test [2], the “ratio of Nav1.7 potency:Nav 1.5 potency” value is given as greater than 2200. `CN[C@H](CNc1cc(F)c(S(=O)(=O)Nc2nccs2)cc1Cl)Cc1cccc(Cl)c1` [Ex1-19, (S)-5-chloro-4-((3-(3-chlorophenyl)-2-(methyl-amino)propyl)-amino)-2-fluoro-N-(thiazol-2-yl)-benzenesulfonamide]: the IC50 in test [1] was 24 nM. For the same molecule, the “ratio of Nav1.7 potency:Nav 1.5 potency” value in test [2] was greater than 1375. The corresponding values for `CN[C@H](CNc1cc(F)c(S(=O)(=O)Nc2nccs2)cc1Cl)Cc1ccc(C)cc1` [Ex1-20, (S)-5-chloro-2-fluoro-4-((2-(methylamino)-3-(p-tolyl)propyl)amino)-N-(thiazol-2-yl)-benzenesulfonamide] are 280 nM and greater than 118. For the molecule `CN[C@@H](CCc1ccccc1)CNc1cc(F)c(S(=O)(=O)Nc2nccs2)cc1Cl` [Ex1-21, (S)-5-chloro-2-fluoro-4-((2-(methylamino)-4-phenylbutyl)amino)-N-(thiazol-2-yl)-benzenesulfonamide], the IC50 in test [1] stood at 200 nM. With `CN[C@@H](CCc1ccccc1)CNc1cc(F)c(S(=O)(=O)Nc2ncc(F)s2)cc1Cl` [Ex1-22, (S)-5-chloro-2-fluoro-N-(5-fluorothiazol-2-yl)-4-((2-(methylamino)-4-phenylbutyl)amino)-benzenesulfonamide], the IC50 in test [1] turned out to be 140 nM. Besides, the “ratio of Nav1.7 potency:Nav 1.5 potency” value in test [2] is recorded as greater than 236. For `CN[C@H](CNc1cc(F)c(S(=O)(=O)Nc2nccs2)cc1Cl)Cc1cccc(Br)c1` [Ex1-23, (S)-4-((3-(3-bromo-phenyl)-2-(methylamino)-propyl)amino)-5-chloro-2-fluoro-N-(thiazol-2-yl)-benzenesulfonamide], in that order: 36 nM and greater than 917.

Regarding `CN[C@H](CNc1cc(F)c(S(=O)(=O)Nc2nccs2)cc1Cl)Cc1ccccc1Br` [Ex1-24, (S)-4-((3-(2-bromo-phenyl)-2-(methylamino)-propyl)amino)-5-chloro-2-fluoro-N-(thiazol-2-yl)-benzenesulfonamide], in test [1], the IC50 came out at 440 nM. Also, the “ratio of Nav1.7 potency:Nav 1.5 potency” value in test [2] is greater than 75. With `CN[C@H](CNc1cc(F)c(S(=O)(=O)Nc2nccs2)cc1Cl)Cc1ccc(Br)cc1` [Ex1-25, (S)-4-((3-(4-bromo-phenyl)-2-(methylamino)-propyl)amino)-5-chloro-2-fluoro-N-(thiazol-2-yl)-benzenesulfonamide], in test [1], the IC50 came out at 110 nM. Regarding `CN[C@H](CNc1cc(F)c(S(=O)(=O)Nc2ncns2)cc1Cl)Cc1ccccc1` [Ex1-26, (S)-5-chloro-2-fluoro-4-((2-(methylamino)-3-phenylpropyl)amino)-N-(1,2,4-thiadiazol-5-yl)-benzenesulfonamide], the IC50 in test [1] worked out at 200 nM. Take `CN[C@H](CNc1cc(F)c(S(=O)(=O)Nc2ncc(F)s2)cc1Cl)Cc1ccccc1` [Ex1-27, (S)-5-chloro-2-fluoro-N-(5-fluorothiazol-2-yl)-4-((2-(methylamino)-3-phenylpropyl)amino)-benzenesulfonamide]: the IC50 in test [1] amounted to 190 nM. Also, the “ratio of Nav1.7 potency:Nav 1.5 potency” value in test [2] was greater than 174. The corresponding values for `CN[C@H](CNc1cc(F)c(S(=O)(=O)Nc2nccs2)cc1Cl)Cc1cccc(F)c1` [Ex1-28, (S)-5-chloro-2-fluoro-4-((3-(3-fluorophenyl)-2-(methylamino)-propyl)-amino)-N-(thiazol-2-yl)-benzenesulfonamide] are 32 nM and greater than 1031. The corresponding values for `CN[C@H](CNc1cc(F)c(S(=O)(=O)Nc2nccs2)cc1Cl)Cc1ccccc1F` [Ex1-29, (S)-5-chloro-2-fluoro-4-((3-(2-fluorophenyl)-2-(methylamino)-propyl)-amino)-N-(thiazol-2-yl)-benzenesulfonamide] are 310 nM and greater than 106. In the case of `CN[C@H](CNc1cc(F)c(S(=O)(=O)Nc2nccs2)cc1Cl)Cc1cc(F)cc(F)c1` [Ex1-30, (S)-5-chloro-4-((3-(3,5-difluorophenyl)-2-(methyl-amino)-propyl)amino)-2-fluoro-N-(thiazol-2-yl)-benzenesulfonamide], the IC50 in test [1] was found to be 160 nM. Besides, in test [2], the “ratio of Nav1.7 potency:Nav 1.5 potency” value is greater than 206. The corresponding values for `CN[C@H](CNc1cc(F)c(S(=O)(=O)Nc2nccs2)cc1Cl)Cc1ccc(F)c(F)c1` [Ex1-31, (S)-5-chloro-4-((3-(3,4-difluorophenyl)-2-(methyl-amino)propyl)amino)-2-fluoro-N-(thiazol-2-yl)-benzenesulfonamide] are 30 nM and greater than 1100. For `CN[C@H](CNc1cc(F)c(S(=O)(=O)Nc2nccs2)cc1Cl)Cc1ccc(F)cc1Br` [Ex1-32, (S)-4-((3-(2-bromo-4-fluorophenyl)-2-(methyl-amino)propyl)-amino)-5-chloro-2-fluoro-N-(thiazol-2-yl)-benzenesulfonamide], the IC50 in test [1] was found to be 170 nM.

Take `CN[C@H](CNc1cc(F)c(S(=O)(=O)Nc2nccs2)cc1Cl)Cc1cccc(F)c1Br` [Ex1-33, (S)-4-((3-(2-bromo-3-fluorophenyl)-2-(methyl-amino)propyl)-amino)-5-chloro-2-fluoro-N-(thiazol-2-yl)-benzenesulfonamide]: the IC50 in test [1] was 130 nM. Also, in test [2], the “ratio of Nav1.7 potency:Nav 1.5 potency” value is reported as greater than 254. The corresponding values for `CN[C@H](CNc1cc(F)c(S(=O)(=O)Nc2nccs2)cc1Cl)Cc1ccc(Cl)cc1` [Ex1-34, (S)-5-chloro-4-((3-(4-chlorophenyl)-2-(methyl-amino)propyl)amino)-2-fluoro-N-(thiazol-2-yl)-benzenesulfonamide] are 33 nM and greater than 1000. In the case of `CN[C@H](CNc1cc(F)c(S(=O)(=O)Nc2ncc(F)s2)cc1Cl)CC1CCC1` [Ex2-12, (S)-5-chloro-4-((3-cyclobutyl-2-(methylamino)propyl)amino)-2-fluoro-N-(5-fluorothiazol-2-yl)benzenesulfonamide], the IC50 in test [1] was 1030 nM. The “ratio of Nav1.7 potency:Nav 1.5 potency” value in test [2] is greater than 32. Regarding `CN[C@H](CNc1cc(F)c(S(=O)(=O)Nc2ncc(F)s2)cc1Cl)CC12CC(C1)C2` [Ex2-13, (S)-4-((3-(bicyclo[1.1.1]pentan-1-yl)-2-(methylamino)propyl)-amino)-5-chloro-2-fluoro-N-(5-fluorothiazol-2-yl)-benzenesulfonamide], the IC50 in test [1] amounted to 54 nM. Further, the “ratio of Nav1.7 potency:Nav 1.5 potency” value in test [2] is greater than 611.

In the case of `CN[C@H](CNc1cc(F)c(S(=O)(=O)Nc2ncc(F)s2)cc1Cl)CC1(C(F)(F)F)CC1` [Ex2-14, (S)-5-chloro-2-fluoro-N-(5-fluorothiazol-2-yl)-4-((2-(methylamino)-3-(1-(trifluoromethyl)cyclopropyl)-propyl)amino)benzenesulfonamide], the IC50 in test [1] stood at 170 nM. Consider `CN[C@@H](CCC(C)(C)C)CNc1cc(F)c(S(=O)(=O)Nc2ncc(F)s2)cc1Cl` [Ex2-15, (S)-5-chloro-4-((5,5-dimethyl-2-(methylamino)hexyl)amino)-2-fluoro-N-(5-fluorothiazol-2-yl)-benzenesulfonamide], for which the IC50 in test [1] was 670 nM. For the same molecule, the “ratio of Nav1.7 potency:Nav 1.5 potency” value in test [2] is greater than 49. With `CN[C@H](CNc1cc(F)c(S(=O)(=O)Nc2ncc(F)s2)cc1Cl)CC1CC1(Cl)Cl` (stereo partly drawn) [Ex2-21, 5-chloro-4-(((2S)-3-(2,2-dichlorocyclopropyl)-2-(methylamino)propyl)amino)-2-fluoro-N-(5-fluorothiazol-2-yl)-benzenesulfonamide], the IC50 in test [1] is 110 nM.

In the case of `CN(C)[C@H](CNc1cc(F)c(S(=O)(=O)Nc2ncc(F)s2)cc1Cl)CC1(C)CC1` [Ex7-3, (S)-5-chloro-4-((2-(dimethylamino)-3-(1-methylcyclopropyl)propyl)amino)-2-fluoro-N-(5-fluorothiazol-2-yl)benzenesulfonamide], the IC50 in test [1] came to 150 nM.

Source of the values: patent publication US10442778B2, “N1-phenylpropane-1,2-diamine compounds with selective activity in voltage-gated sodium channels” (Merck Sharp & Dohme Corp., priority 2016, dated 2019).
